Molecules are shown by their SMILES.

A word on the IC50: it is the concentration needed to halve the response being measured. A low value points to inhibition by little substance.

The experiment has as its target Tyrosine-protein kinase SYK (Homo sapiens, UniProt P43405). Put plainly: Syk Enzyme Assay. The note with it: pH 7.4; 25 °C. The source says: A Lance TR-FRET assay (Perkin Elmer) was used to measure and compare the potency of compounds against Syk kinase domain.

Take `COc1cc2nccc(Oc3ccc(NC(=O)N[C@@H]4C[C@H]4c4ccccc4)nc3)c2cc1OC` [Dimethoxyquinoline, 1]: the concentration for half-maximal inhibition (IC50) is 320 nM.

Values taken from BindingDB's records for doi:10.1111/j.1747-0285.2012.01443.x (Pfizer, 2012).
